In brackets after ≈: the same amount, converted by molar mass. Read-outs that look alike come from different tables or passages of the source.
Experiments:
[1] = biological target: T1, RnpA (Staphylococcus aureus, UniProt P0A0H5); test: RnpA mRNA degradation activity assay; type: biochemical
T1 sequence (P0A0H5 1-117): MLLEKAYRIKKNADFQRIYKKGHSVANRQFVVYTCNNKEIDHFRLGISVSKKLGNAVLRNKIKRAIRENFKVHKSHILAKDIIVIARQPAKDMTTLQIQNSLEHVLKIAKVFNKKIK
Protocol: The RNase P inhibitors described herein were tested for activity toward RnpA mRNA degradation activity. Either 1 μg of total S. aureus RNA or 1 pmol of in vitro synthesized spa mRNA was incubated with 20 pmol RnpA at 37° C. for 15 to 30 min in a reaction buffer (50 mM Tris-HCl pH 8.0, 2 mM NaCl, 2 mM MgCl2) in the absence or presence of the indicated compound. Reactions were stopped by adding an equal volume of 2×RNA loading dye (95% formamide, 0.025% SDS, 0.025% bromophenol blue, 0.025% xylene cyanol FF, 0.5 mM EDTA), run on a denaturing 1.0% agarose-0.66 M formaldehyde gel and stained with ethidium bromide. RNA substrates and corresponding degradation products were visualized using a FluorChem 5500 system (Alpha Innotech; San Leandro, Calif.). The inhibitory effects of the test compounds were measured using Image J densitometry software (National Institutes of Health; Bethesda, Md.) to quantify the signal intensity of the RNA band(s) in the negative control (RNA alone), positive control (RnpA+RNA+DMSO), and experimental samples (RnpA+RNA+test compound). The percent enzyme inhibition of test compounds was calculated using the following equation: Percent inhibition=[(experimental signal-positive control)/(negative control signal-positive control signal)]*100.

[2] = biological target: T2, S. aureus RNase P (RnpA+rnpB) (Staphylococcus aureus, UniProt P0A0H5); test: RNase P activity assay (precursor tRNA processing); type: biochemical; settings: ptRNATyr processing, gel densitometry; read-out: RNase P IC50
T2 sequence (P0A0H5 1-117): T1 sequence (P0A0H5 1-117)
Protocol: The RNase P inhibitors described herein were tested for activity toward RNase P. S. aureus RNase P activity assays were performed in low salt buffer (50 mM Tris-HCl pH 8.0, 5 mM MgCl2) or in high salt buffer (50 mM Tris-HCl pH 8.0, 100 mM MgCl2, 800 mM NH4Cl). For all reactions, ptRNATyr, tRNATyr, or rnpB RNA species were first denatured by heating to 95° C. for 3 minutes, and then slowly cooling the mixtures to room temperature. RNase P was reconstituted by mixing an equal molar ratio of RnpB and RnpA for 15 min at 37° C. Precursor tRNA processing reactions (20 μL) were performed by mixing 1.25 pmol RNase P (RnpA+rnpB), RnpA, or rnpB with an equal volume of 2× low salt buffer or 2× high salt buffer and 10 pmol ptRNATyr. Mixtures were incubated for 15 min at 37° C. Reactions were stopped by adding 20 μL 2×RNA loading dye (95% formamide, 0.025% SDS, 0.025% bromophenol blue, 0.025% xylene cyanol FF, 0.5 mM EDTA), and 30 μL of each sample was electrophoresed in a 7 M urea/8% polyacrylamide gel and was then stained with ethidium bromide (0.5 μg/ml). Where indicated, reactions were repeated in the presence of the indicated amount of putative RnpA inhibitors or dimethyl sulfoxide (DMSO). A FluorChem 5500 imaging system was used to visualize the RNA, and the relative abundance of the mature tRNATyr band in the positive control (RNase P+DMSO) or in samples containing test compounds was measured using Image J densitometry software (NIH). The percent RNase P activity was then calculated using the following calculation: (test compound tRNATyr signal/positive control tRNATyr signal)*100.

[3] = tested on: S. aureus strain UAMS-1; test: Fractional Inhibitory Concentration testing with mupirocin; type: cell-based; settings: combined with mupirocin, S. aureus UAMS-1, Mueller Hinton broth, 18 hours; synergistic FIC≤0.5
Protocol: The RNase P inhibitors described herein were tested for Fractional Inhibitory Concentration (FIC) in the presence of mupirocin. FIC testing was performed to determine the combined effects of mupirocin and the RnpA inhibitors as described herein. Individual wells of a 96-well microtiter plate were inoculated with 1×10^5 CFU of S. aureus strain UAMS-1 in a Mueller Hinton broth. Each row of the plate contained increasing concentrations of RNPA1000 or RNPA2000 (two-fold increments; 0, 0.004, 0.008, 0.016, 0.03, 0.06, 0.125, 0.25, 0.5, 1, 2, or 4×MIC), whereas each column contained increasing concentrations of the indicated antibiotic (two-fold increments; 0, 0.06, 0.125, 0.25, 0.5, 1, 2, or 4×MIC). Plates were incubated for 18 hours at 37° C., and growth was detected by the unaided eye. The FIC was determined using the following formula: (MIC of Drug A in Combination/MIC of Drug A Alone)+(MIC of Drug B in Combination/MIC of Drug B Alone)=FIC. A synergistic interaction was defined as an FIC value≤0.5, no interaction as an FIC of 0.5-4, or an antagonistic interaction FIC>4.

[4] = tested on: Staphylococcus aureus strain UAMS-1; test: Antimicrobial susceptibility testing (MIC, broth microdilution); type: cell-based; settings: Staphylococcus aureus, UAMS1, 18 h, S. aureus UAMS-1, Mueller Hinton broth, 37° C., read-out: MIC
Protocol: The RNase P inhibitors described herein were tested for antimicrobial activity toward Staphylococcus aureus strain UAMS-1. Individual wells of a 96-well microtiter plate were inoculated with ˜1×10^5 colony-forming units (CFU) of the indicated organism, containing two-fold increasing concentrations (from 0 to 256 μg mL^−1) of the indicated antibiotic or putative RnpA inhibitor, and incubated at 37° C. for 18 hours in Mueller Hinton broth. The MIC was defined as the lowest concentration of antibiotic in which there was no visible bacterial growth in the wells. Minimum bactericidal concentration testing was performed by enumerating the bacterial cells in each of the wells containing treatments at and above the MIC.

[5] = RnpA mRNA degradation, gel densitometry, read-out: RnpA IC50

Row | IC50 [1, 5] [µM] | IC50 [2] [µM] | MIC [4] [µg/mL] | Compound | FIC with Mupirocin [3] | IC50 [1] [µM]
1 | > 500 | > 500 | 8 to 16 (≈ 24 to 48 µM) | CCOc1ccccc1C(=O)NNC(=S)NC(=O)c1ccco1 [MC-190067] | 0.625 | 
2 | > 500 | 370 | 32 (≈ 97.2 µM) | O=C(NC(=S)NNC(=O)C1C[C@H]1c1ccccc1)c1ccco1 (stereo partly shown) [MC-190068] | 0.5 | 
3 | > 500 | > 500 | 256 (≈ 704 µM) | CCOc1ccc(OCC(=O)NNC(=S)NC(=O)c2ccco2)cc1 [MC-190071] | 0.375 | 
4 | > 500 | > 500 | 16 (≈ 48 µM) | Cc1ccccc1OCC(=O)NNC(=S)NC(=O)c1ccco1 [ST5522690] | 1 | 
5 | 35 | 220 | 16 (≈ 35.8 µM) | Cc1cc(OCC(=O)NNC(=S)NC(=O)c2ccc(Br)o2)ccc1Cl [ST5522821] | 0.75 | 
6 | > 500 | 75 | 4 (≈ 9.94 µM) | Cc1occc1C(=O)NNC(=S)NC(=O)COc1ccc(Cl)cc1Cl [ST5523108] | 0.49 | 
7 | 45 | 110 | 32 (≈ 79.3 µM) | CC(C)c1ccccc1OCC(=O)NNC(=S)NC(=O)/C=C/c1cccs1 [ST5523210] | 0.75 | 
8 | > 500 | > 500 | 8 (≈ 23.9 µM) | CC(C)c1ccc(OCC(=O)NNC(=S)NC(=O)C2CC2)cc1 [ST5523314] | 1 | 
9 | 380 | 75 | 8 (≈ 18.8 µM) | Cc1ccc(OCC(=O)NNC(=S)NC(=O)c2ccc(Br)o2)c(C)c1 [ST5523326] | 0.375 | 
10 | > 500 | 100 | 128 (≈ 295 µM) | Cc1cccc(C)c1OCC(=O)NNC(=S)NC(=O)c1ccc(-c2ccccc2)cc1 [ST5523335] | 0.375 | 
11 | 45 | 65 | 32 (≈ 67.5 µM) | O=C(COc1ccc(-c2ccccc2)cc1)NNC(=S)NC(=O)c1ccc(Br)o1 [ST5524465] | 0.625 | 
12 | > 500 | 200 | 8 (≈ 17.6 µM) | CC(C)(C)c1ccc(OCC(=O)NNC(=S)NC(=O)c2ccco2)c(Br)c1 [ST5524527] | 0.625 | 
13 | > 500 | 125 | 32 (≈ 74 µM) | O=C(COc1ccc(Cl)cc1Br)NNC(=S)NC(=O)c1ccco1 [ST5525958] | 0.75 | 
14 | > 500 | 230 | 32 (≈ 74.5 µM) | CCOc1ccc(C(=O)NC(=S)NNC(=O)COc2cc(C)ccc2C(C)C)cc1 [ST5528173] | 1 | 
15 | 430 | 95 | 4 (≈ 11.5 µM) | CCCOc1ccccc1C(=O)NNC(=S)NC(=O)c1ccco1 [ST5528488] | 0.5 | 
16 | > 500 | 380 | > 128 | CC(C)c1ccccc1OCC(=O)NNC(=S)NC(=O)c1ccccc1OCCOc1ccccc1 [ST5528880] | 0.56 | 
17 | 40 | > 500 | > 128 | Cc1ccc(C(C)C)c(OCC(=O)NNC(=S)NC(=O)c2ccccc2OCCOc2ccccc2)c1 [ST5528960] | 0.56 | 
18 | > 500 | > 500 | > 128 | CC(Oc1ccc2ccccc2c1)C(=O)NNC(=S)NC(=O)c1ccco1 (stereo not shown) [ST5682782] | 0.25 | 
19 | > 500 | 65 | > 128 | CCCc1ccc(OCC(=O)NNC(=S)NC(=O)c2ccco2)cc1 [ST5682783] | 0.31 | 
20 | > 500 | > 500 | 8 (≈ 23 µM) | CCCOc1ccc(C(=O)NNC(=S)NC(=O)c2ccco2)cc1 [ST5684191] | 0.375 | 
21 | > 500 | > 500 | 64 (≈ 208 µM) | O=C(NNC(=S)NC(=O)c1ccco1)c1ccc(F)cc1 [ST5703018] | 0.625 | 

Row | Compound | IC50 [1, 5] [µM] | IC50 [2] [µM] | MIC [4] [µg/mL] | FIC with Mupirocin [3] | IC50 [1] [µM]
22 | CC(C)c1ccc(OCC(=O)NNC(=S)NC(=O)c2ccccn2)cc1 [MC-190053] | 100 | 1 | 32 (≈ 85.9 µM) | 0.49 | 
23 | CC(C)c1ccc(OCC(=O)NNC(=S)NC(=O)c2cc3ccccc3[nH]2)cc1 [MC-190054] | 50 | < 0.5 | 16 (≈ 39 µM) | 0.49 | 
24 | CC(C)c1ccc(OCC(=O)NNC(=S)NC(=O)c2c[nH]c3ccccc23)cc1 [MC-190055] | 40 | 90 | 32 (≈ 78 µM) | 0.56 | 
25 | COc1ccc2[nH]c(C(=O)NC(=S)NNC(=O)COc3ccc(C(C)C)cc3)cc2c1 [MC-190060] | 50 | < 50 | 32 (≈ 72.6 µM) | 0.49 | 
26 | CC(C)c1ccc(OCC(=O)NNC(=S)NC(=O)c2cc3cc(Cl)ccc3[nH]2)cc1 [MC-190064] |  | 100 | 256 (≈ 575 µM) | 0.53 | > 500
27 | CC(C)c1ccc(OCC(=O)NNC(=S)NC(=O)c2cc3ccc(Cl)cc3[nH]2)cc1 [MC-190066] | 250 | < 50 | 16 (≈ 36 µM) | 0.75 | 
28 | CC(C)c1ccc(OCC(=O)NNC(=S)NC(=O)c2cc3ccccc3s2)cc1 [MC-220001] | 50 | 100 | > 256 | 0.56 | 
